The record followed here is ChEMBL document CHEMBL3616373, “Identification of N-sulfonyl-tetrahydroquinolines as RORc inverse agonists” (Bioorg Med Chem Lett, 2015).

Structures are written as SMILES. The source made the active and inactive calls. The calls are words filed in the database; no cut-off is given here. A value given as a limit tells only on which side of the number the result lay.

Series [1] concerns the target T1, Oxysterols receptor LXR-alpha (Homo sapiens) (UniProt Q13133).
T1 sequence (whole entry): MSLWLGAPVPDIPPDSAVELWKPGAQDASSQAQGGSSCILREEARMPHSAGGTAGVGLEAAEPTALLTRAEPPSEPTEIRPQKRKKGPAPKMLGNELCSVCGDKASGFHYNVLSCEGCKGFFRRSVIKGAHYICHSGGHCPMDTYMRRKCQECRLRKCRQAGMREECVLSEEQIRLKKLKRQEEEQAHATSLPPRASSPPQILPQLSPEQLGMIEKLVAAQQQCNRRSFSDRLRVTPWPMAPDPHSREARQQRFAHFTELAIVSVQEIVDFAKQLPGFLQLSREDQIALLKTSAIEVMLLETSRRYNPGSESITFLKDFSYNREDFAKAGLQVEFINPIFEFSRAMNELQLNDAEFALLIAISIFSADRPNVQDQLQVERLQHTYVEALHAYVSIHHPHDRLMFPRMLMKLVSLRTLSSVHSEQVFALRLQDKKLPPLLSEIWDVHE
In words: Agonist activity at GAL4-fused human LXRalpha expressed in HEK293 cells assessed as activation of basal transcriptional activity up to 10 uM after 20 hrs by dual-glo luciferase reporter gene assay. The class given is cell-based.

A short description of series [2]: Plasma protein binding in human at 5 uM after 4 hrs by equilibrium dialysis method. It counts as ADME, cell-free. As to conditions: read-out: PPB.
A short description of series [3]: Apparent permeability across basolateral to apical side in MDCK cells at 100 uM after 60 mins by HPLC analysis. It counts as ADME, cell-based, Canis lupus familiaris. As to conditions: dog.
Series [4] concerns the target T2, Oxysterols receptor LXR-alpha (Homo sapiens, UniProt Q13133).
T2 sequence (Q13133 whole entry): T1 sequence (whole entry)
As to the kind of experiment: Antagonist activity at GAL4-fused human LXRalpha expressed in HEK293 cells assessed as inhibition of T0901317-stimulated transcriptional activity after 20 hrs by dual-glo luciferase reporter gene assay. It counts as cell-based.

The nature of series [5]: Apparent permeability across apical to basolateral side in MDCK cells at 100 uM after 60 mins by HPLC analysis. The class given is ADME, cell-based, Canis lupus familiaris. As to conditions: dog.
Series [6] concerns the target T3, Oxysterols receptor LXR-beta (Homo sapiens, UniProt P55055).
T3 sequence (P55055 whole entry): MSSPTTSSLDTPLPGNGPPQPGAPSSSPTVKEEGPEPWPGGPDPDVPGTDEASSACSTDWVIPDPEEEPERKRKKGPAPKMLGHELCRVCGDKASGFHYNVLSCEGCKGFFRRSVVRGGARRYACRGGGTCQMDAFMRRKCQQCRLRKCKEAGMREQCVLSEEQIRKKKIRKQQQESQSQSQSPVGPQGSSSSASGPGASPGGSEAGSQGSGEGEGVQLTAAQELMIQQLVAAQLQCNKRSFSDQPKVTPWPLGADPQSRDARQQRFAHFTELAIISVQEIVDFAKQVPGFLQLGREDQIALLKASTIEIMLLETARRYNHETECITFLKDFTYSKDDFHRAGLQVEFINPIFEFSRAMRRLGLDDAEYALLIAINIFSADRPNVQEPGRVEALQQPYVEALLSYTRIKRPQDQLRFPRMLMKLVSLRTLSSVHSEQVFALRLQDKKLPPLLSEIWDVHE
In words: Antagonist activity at GAL4-fused human LXRbeta expressed in HEK293 cells assessed as inhibition of T0901317-stimulated transcriptional activity after 20 hrs by dual-glo luciferase reporter gene assay. The class given is cell-based.

The target of series [7] is T4, Nuclear receptor subfamily 1 group I member 2 (Homo sapiens, UniProt O75469).
T4 sequence (O75469 whole entry): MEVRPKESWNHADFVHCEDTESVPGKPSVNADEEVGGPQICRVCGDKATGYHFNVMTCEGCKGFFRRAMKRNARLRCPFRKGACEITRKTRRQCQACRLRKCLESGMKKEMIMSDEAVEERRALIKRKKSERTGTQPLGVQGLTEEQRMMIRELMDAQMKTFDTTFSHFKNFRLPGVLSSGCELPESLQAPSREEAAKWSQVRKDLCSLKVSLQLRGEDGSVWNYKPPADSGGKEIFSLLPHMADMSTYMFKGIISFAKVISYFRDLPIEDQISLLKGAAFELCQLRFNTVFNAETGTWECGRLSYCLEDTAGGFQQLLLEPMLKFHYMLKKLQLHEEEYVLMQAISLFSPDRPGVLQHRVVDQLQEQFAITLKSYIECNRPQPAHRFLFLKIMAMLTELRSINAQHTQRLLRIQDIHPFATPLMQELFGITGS
As to the kind of experiment: Agonist activity at GAL4-fused human PXR expressed in HEK293 cells assessed as activation of basal transcriptional activity up to 10 uM after 20 hrs by dual-glo luciferase reporter gene assay. As to conditions: hek293, 20 h. It counts as cell-based.

Series [8] has as its target T5, Nuclear receptor ROR-beta (Homo sapiens, UniProt Q92753).
T5 sequence (Q92753 whole entry): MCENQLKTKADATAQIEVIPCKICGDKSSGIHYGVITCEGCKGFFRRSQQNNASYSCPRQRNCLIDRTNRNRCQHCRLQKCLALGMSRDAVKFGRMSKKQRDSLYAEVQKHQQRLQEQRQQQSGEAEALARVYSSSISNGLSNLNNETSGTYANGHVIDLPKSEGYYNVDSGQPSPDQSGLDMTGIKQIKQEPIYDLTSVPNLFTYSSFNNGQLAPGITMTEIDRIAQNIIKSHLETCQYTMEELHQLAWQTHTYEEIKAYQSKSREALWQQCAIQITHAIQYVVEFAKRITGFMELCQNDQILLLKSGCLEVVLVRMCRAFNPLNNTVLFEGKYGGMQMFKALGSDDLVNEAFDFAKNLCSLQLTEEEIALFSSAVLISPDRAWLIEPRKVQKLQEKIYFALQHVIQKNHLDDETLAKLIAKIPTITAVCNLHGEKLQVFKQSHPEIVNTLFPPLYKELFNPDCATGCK
In words: Inverse agonist activity at GAL4-fused human RORb expressed in HEK293 cells assessed as suppression of basal transcriptional activity after 20 hrs by dual-glo luciferase reporter gene assay. The class given is cell-based.

In series [9] the target is T6, Oxysterols receptor LXR-beta (Homo sapiens) (UniProt P55055).
T6 sequence (whole entry): T3 sequence (P55055 whole entry)
As to the kind of experiment: Agonist activity at GAL4-fused human LXRbeta expressed in HEK293 cells assessed as activation of basal transcriptional activity up to 10 uM after 20 hrs by dual-glo luciferase reporter gene assay. It counts as cell-based.

The nature of series [10]: Plasma protein binding in rat at 5 uM after 4 hrs by equilibrium dialysis method. As to conditions: read-out: PPB. The class given is ADME, cell-free.

As for `O=C(Nc1ccc2c(c1)N(S(=O)(=O)c1ccc(F)cc1)CC2)c1c(F)cccc1F`, the result in series [1] and in series [9] was inactive. The fraction unbound at 4 h, 5 µM in series [2] is less than 0.01; in series [10], 0.01. For the same molecule, the basolateral-to-apical permeability (Papp B→A) at 1 h, 100 µM in series [3] is 11 ×10⁻⁶ cm/s. Moreover, the concentration for a half-maximal effect (EC50) stood at 4.2 µM in series [4], 5.7 µM in series [6] and 7.9 µM in series [8]. The apical-to-basolateral permeability (Papp A→B) at 1 h, 100 µM in series [5] was found to be 16 ×10⁻⁶ cm/s. In series [7], the Activity result is “Not Active”.
Consider `O=C(Nc1ccc2c(c1)N(S(=O)(=O)c1ccc(F)cc1)CCC2)c1c(F)cccc1Cl`, for which the outcome in series [1] and in [9] was inactive. The fraction unbound at 4 h, 5 µM in series [2] and in series [10] was less than 0.01 throughout. The basolateral-to-apical permeability (Papp B→A) at 1 h, 100 µM in series [3] came out at 12 ×10⁻⁶ cm/s. The apical-to-basolateral permeability (Papp A→B) at 1 h, 100 µM in series [5] worked out at 12 ×10⁻⁶ cm/s. The EC50 in [6] turned out to be 2.6 µM; in [8], 3.4 µM. Further, the Activity entry in series [7] was “Not Active”.
On to `O=C(Nc1ccc2c(c1)N(S(=O)(=O)c1ccc(F)cc1)CCC2)c1ccccc1Cl`, for which the result in series [1] and in [9] was inactive. Further, the fraction unbound at 4 h, 5 µM in series [2] and in series [10] was less than 0.01 throughout. Also, in series [3], the basolateral-to-apical permeability (Papp B→A) at 1 h, 100 µM amounted to 15 ×10⁻⁶ cm/s. Besides, the half-maximal effective concentration (EC50) worked out at 2.6 µM in [4], 3.8 µM in series [6] and 4.1 µM in [8]. Moreover, the apparent permeability from apical to basolateral (Papp A→B) at 1 h, 100 µM in series [5] was determined as 12 ×10⁻⁶ cm/s. The Activity result in series [7] was “Not Active”.
On to `O=C(Nc1ccc2c(c1)N(S(=O)(=O)c1ccc(F)cc1)CCC2)c1c(F)cccc1F`, for which the result in [1] and in series [9] was inactive. Further, the fraction unbound at 4 h, 5 µM is less than 0.01 in series [2] and 0.01 in series [10]. In addition, the Papp B→A at 1 h, 100 µM in [3] was 14 ×10⁻⁶ cm/s. For the same molecule, the EC50 turned out to be 4.1 µM in [4], 3.2 µM in [6] and 5.4 µM in series [8]. Also, in [5], the Papp A→B at 1 h, 100 µM worked out at 22 ×10⁻⁶ cm/s. The Activity result in series [7] is listed as “Not Active”.
